This is an account of results in publication PMC6505380, “An Extensively Humanized Mouse Model to Predict Pathways of Drug Disposition and Drug/Drug Interactions, and to Facilitate Design of Clinical Trials” (Drug Metabolism and Disposition, 2019).

Data set [1] deals with CYP2D6. Briefly: Kinetic parameters of 4-hydroxyl debrisoquine formation in liver microsomes (HLM, 8HUM). The following applies: pooled human liver microsomes (HLM). Format: in vitro ADME. Here is the method:
All samples were handled in amber tubes under conditions of subdued light for the duration of the procedure. […] The samples were then centrifuged at 3000g for 55 minutes at 4°C and an aliquot of the supernatant fraction was analyzed by LC-MS/MS.
Calibration curves were constructed with authentic metabolite standards and linear regression analysis used to calculate the amount of metabolite formed in each test sample. […] The 7-ethoxyresorufin O-deethylation assay was carried out as detailed below.

For data set [2] the following is noted: female, 8HUM, mouse, in vivo.
Protocol: Blood sampling and analysis was carried out as described above and in Supplemental Data.
Data set [3] deals with T1, CYP1A2 (Homo sapiens, UniProt P05177).
T1 sequence (P05177 1-516): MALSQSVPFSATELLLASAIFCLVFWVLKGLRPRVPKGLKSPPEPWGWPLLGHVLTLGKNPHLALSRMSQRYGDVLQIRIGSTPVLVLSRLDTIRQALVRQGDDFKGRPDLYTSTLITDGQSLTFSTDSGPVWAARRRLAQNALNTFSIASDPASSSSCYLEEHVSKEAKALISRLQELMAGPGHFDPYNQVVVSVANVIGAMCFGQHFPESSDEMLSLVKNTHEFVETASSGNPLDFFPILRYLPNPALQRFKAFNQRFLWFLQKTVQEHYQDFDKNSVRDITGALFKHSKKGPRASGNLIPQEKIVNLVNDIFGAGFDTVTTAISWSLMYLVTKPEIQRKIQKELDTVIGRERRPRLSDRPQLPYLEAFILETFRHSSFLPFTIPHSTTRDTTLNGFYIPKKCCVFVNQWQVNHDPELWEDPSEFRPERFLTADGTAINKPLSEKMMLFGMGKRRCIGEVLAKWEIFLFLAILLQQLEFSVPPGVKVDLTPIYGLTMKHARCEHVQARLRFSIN
The data set is described as follows: Enzyme inhibition assay, caffeine to paraxanthine (HLM, 8HUM microsomes). The following applies: caffeine 220 μM in cocktail, furafylline 3, enoxacin 200, fluconazole 300, sulfaphenazole 3, quinidine 3, paroxetine 10, ketoconazole 1 μM. Here is the method: (§1) After a 5-minute preincubation at 37°C, reactions were initiated by addition of NADPH (1.3 mM). […] The samples were then centrifuged at 3000g for 55 minutes at 4°C, and an aliquot of the supernatant fraction was analyzed by LC-MS/MS. All experiments were performed at least in triplicate.

The conditions of data set [4]: healthy volunteers; single dose of 200 mg ketoconazole 2 hours prior to midazolam; ref McCrea et al., 1999; cited from earlier work.
For the next data set, the target named is CYP2C9 (Homo sapiens, UniProt P11712). Briefly: Enzyme inhibition assay, tolbutamide hydroxylation (HLM, 8HUM microsomes). The following applies: tolbutamide 2 μM in cocktail, furafylline 3, enoxacin 200, fluconazole 300, sulfaphenazole 3, quinidine 3, paroxetine 10, ketoconazole 1 μM. On the procedure:
as §1

The nature of data set [5]: Dabrafenib pharmacokinetics in 8HUM mice: effect of rifampicin and ketoconazole. Format: in vivo, mouse. The conditions noted are these: for Cmax / half-life / AUC: female, 8HUM, mouse, whole blood, po, 10 mg/kg, female 8HUM mice, dabrafenib 10 mg/kg PO; for AUC: read-out: AUC0 t. On the procedure:
Pharmacokinetic parameters were calculated by Phoenix WinNonlin version 8.0.0.3176 (Certara, Princeton, NJ).
Fig. 3.

The subject of data set [6] is 8HUM liver microsomes. Briefly: Dextromethorphan O-demethylation in liver microsomes of dabrafenib-treated 8HUM mice. The data set is classed as in vitro ADME, mouse. Here is the method:
After 5 minutes, the reaction was stopped by combining 100 μl of the reaction mixture with 120 μl of 0.2 M hydrochloric acid containing dextrorphan-d3 (92 ng/ml) as an internal standard. […] The concentrations of […] were measured by liquid chromatography–tandem mass spectrometry (LC-MS/MS). […] The multiple reaction monitoring parameters for dextrorphan and dextrorphan-d3 were 258.16 and 261.24 (precursor ions) and 157.04 (one product ion for both compounds), respectively.
(§2) Fig. 8. Effect of dabrafenib on midazolam pharmacokinetics in 8HUM mice. […] Dab, Dabrafenib; MDZ, midazolam; Unt, untreated; Veh, vehicle.

Data set [7] concerns 8HUM liver microsomes. The data set is described as follows: Dibenzylfluorescein O-debenzylation in liver microsomes of dabrafenib-treated 8HUM mice. Format: in vitro ADME, mouse. The following applies: for Dibenzylfluorescein O-debenzylation: 8HUM liver microsomes, dabrafenib-treated. On the procedure: The O-debenzylation of dibenzylfluorescein (DBF) was measured as described above for the 7-methoxyresorufin O-demethylation assay, with the following modifications: the DBF concentration was 2 μM; the excitation filter was 485 nm; the emission filter was 530 nm; 20 pmol of the fluorescein was added to the control wells.
as §2
(Liver microsomes are a subcellular fraction often used to study metabolism.)

The target in data set [8] is T1, CYP1A2. The data set is described as follows: 7-Methoxyresorufin O-demethylation in liver microsomes of treated 8HUM mice. The following applies: 8HUM liver microsomes, dabrafenib-treated.
Protocol: A mixture of either 7-methoxyresorufin or 7-ethoxyresorufin (1 μM) and 8HUM liver microsomes or HLM (∼0.38 mg protein/ml) in 100 mM potassium phosphate buffer (pH 7.4) supplemented with MgCl2 (3.3 mM) was incubated at 37°C for 5 minutes before the addition of NADPH (final concentration 1.2 mM). […] Slopes of the linear part of the kinetic curves were calculated using Ascent Software Version 2.4.1 (Labsystems). For each reaction two controls, with and without reaction product resorufin (40 pmol) were run. Fluorescence was measured from both control wells and the difference in fluorescence intensity between wells with and without resorufin was used for the conversion of the relative fluorescence units to the picomoles of the reaction product.
The next data set deals with Cyp2b10. Briefly: Murine Cyp2b10 expression in humanized mice after treatment (immunoblot). The data set is classed as in vivo, mouse. The following applies: 8HUM mice, dabrafenib 10 mg/kg. Here is the method:
We therefore sought to identify a specific, clinically relevant PXR agonist that was nontoxic. […] Subsequent studies were therefore undertaken using SJW to induce CYP3A4 expression in 8HUM mice.
(§3) Fig. 7. […] Arrow indicates position of Cyp2b10 band. GRP78 was used as a loading control.
Fig. 8. Effect of dabrafenib on midazolam pharmacokinetics in 8HUM mice. Adult female 8HUM mice (n = 3) were treated with vehicle or dabrafenib (10 mg/kg) PO daily for 2 days, and on day 3 were administered midazolam (3 mg/kg) PO and PK profiling carried out as described in Materials and Methods. (A) Pharmacokinetic profiling for midazolam in 8HUM mice receiving either vehicle (open circles) or dabrafenib (closed triangles). Data shown are mean ± S.D. (B) Immunoblotting of liver microsomes from 8HUM mice, untreated or treated as above, against mouse and human P450 isozymes. Dab, Dabrafenib; MDZ, midazolam; Unt, untreated; Veh, vehicle. One group of dabrafenib-treated mice (Dab) were sacrificed on day 3 without exposure to midazolam to determine the effects of dabrafenib on P450 expression at the start of the PK profiling. […] Std, standard, recombinant human P450 protein or phenobarbital-treated liver microsomes (Cyp2b10); HLM, human liver microsomes.
On the technique in general: Immunoblotting shows a protein as a band on a membrane.

For another data set, the system named is Cytochrome c reductase. The data set is described as follows: Cytochrome c reductase activity in liver microsomes of dabrafenib-treated 8HUM mice. The conditions noted are these: 8HUM liver microsomes. The data set is classed as in vitro ADME, mouse. Here is the method: A mixture of cytochrome c from bovine heart (40 μM) and mouse liver microsomes (∼7.6 μg/ml) in 0.3 M potassium phosphate buffer (pH 7.7) was incubated at 37°C for at least 2 minutes before the reaction was started by addition of NADPH (0.1 mM final concentration). The absorbance at 550 nm was recorded and the reaction rate calculated from the linear region of the absorbance time course. The extinction coefficient of 0.0211 μM^−1cm^−1 was used ([van Gelder and Slater, 1962]) to calculate concentration of the reduced cytochrome c.
as §2

The next data set concerns CYP3A4. The data set is described as follows: Hepatic CYP3A4 expression in 8HUM mice after dabrafenib (immunoblot). The conditions noted are these: dabrafenib 10 mg/kg PO. Format: in vivo, mouse. Here is the method:
Female 8HUM mice received either two daily oral doses of dabrafenib (n = 3; 15 weeks; 10 mg/kg) or vehicle (n = 3; 16 weeks; 0.5% hydroxypropylmethylcellulose, 0.2% Tween 80). On day 3 both groups were administered midazolam (3 mg/kg) by oral gavage. Whole blood collection and sample preparation were performed as described above, and analytical details are described in Supplemental Data. A third group of female 8HUM mice (n = 3; 17–22 weeks) received two daily doses of dabrafenib (10 mg/kg) by oral gavage and were culled for tissue collection on day 3 to allow determination of the effects of dabrafenib on P450 expression at the start of the pharmacokinetic (PK) study.
as §3
Fig. 8. Effect of dabrafenib on midazolam pharmacokinetics in 8HUM mice. Adult female 8HUM mice (n = 3) were treated with vehicle or dabrafenib (10 mg/kg) PO daily for 2 days, and on day 3 were administered midazolam (3 mg/kg) PO and PK profiling carried out as described in Materials and Methods. (A) Pharmacokinetic profiling for midazolam in 8HUM mice receiving either vehicle (open circles) or dabrafenib (closed triangles). Data shown are mean ± S.D. (B) Immunoblotting of liver microsomes from 8HUM mice, untreated or treated as above, against mouse and human P450 isozymes. Dab, Dabrafenib; MDZ, midazolam; Unt, untreated; Veh, vehicle. […]

On the set-up of data set [9]: method as in Suttle et al., 2015. The following applies: patients, 150 mg twice per day, ref Suttle et al., 2015, cited from earlier work.
Data set [10] deals with CYP2D6. The arrangement: method as in VandenBrink et al., 2012. The following applies: man; ref VandenBrink et al., 2012; cited from earlier work.
Where [11] appears, read: Rifampicin 10 mg/kg i.p. daily for 3 days.
Where [12] appears, read: Rifampicin + ketoconazole 20 mg/kg PO 30 minutes before.
[13] abbreviates: Vehicle (corn oil) pretreatment.

Entries after “also recorded” stand apart in the source; their conditions may differ. Read-outs that look alike come from different tables or passages of the source.

Sequence of CYP2C9 (P11712 whole entry): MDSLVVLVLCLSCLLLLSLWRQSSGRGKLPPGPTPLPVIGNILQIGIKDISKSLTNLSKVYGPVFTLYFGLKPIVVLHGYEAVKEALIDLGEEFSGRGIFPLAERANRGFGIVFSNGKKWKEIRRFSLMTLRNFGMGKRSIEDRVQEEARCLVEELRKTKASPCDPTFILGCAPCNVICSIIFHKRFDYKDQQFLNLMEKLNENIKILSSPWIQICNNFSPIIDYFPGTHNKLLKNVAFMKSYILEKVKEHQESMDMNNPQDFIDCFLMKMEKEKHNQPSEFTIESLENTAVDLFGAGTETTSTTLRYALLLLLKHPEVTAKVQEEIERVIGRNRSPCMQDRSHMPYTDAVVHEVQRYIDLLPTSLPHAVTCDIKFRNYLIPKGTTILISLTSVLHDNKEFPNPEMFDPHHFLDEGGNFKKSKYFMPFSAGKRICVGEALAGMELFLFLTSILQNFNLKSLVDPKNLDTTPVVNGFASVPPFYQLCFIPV

`N=C(N)N1CCc2ccccc2C1` [Debrisoquine, debrisoquine]: the Km at 40 min in the data set on CYP2D6 [1] (pH 7.4) came out at 25 ± 7 µM. The Vmax with CYP2D6 [1] is listed as 25 ± 2 pmol/min per milligram protein. The “CYP2D6 fm (fraction metabolized)” value in data set [2] was 0.88.
In the case of `CC(=O)N1CCN(c2ccc(OCC3COC(Cn4ccnc4)(c4ccc(Cl)cc4Cl)O3)cc2)CC1` (centres unmarked) [Ketoconazole, ketoconazole], the entries for the “Caffeine (Paraxanthine) activity, percent of activity measured in the absence of inhibitor” value on CYP1A2 [3] (8HUM microsomes […]) and at CYP1A2 [3] (HLM […]) were 85 ± 34% and 135 ± 45%, respectively. For the same compound, the “Increase of midazolam AUC” value in data set [4] is recorded as approximately 5 fold. For the same compound, the “Tolbutamide (OH-Tolbutamide) activity, percent of activity measured in the absence of inhibitor” value on CYP2C9 (8HUM microsomes […]) was 92 ± 11%; at CYP2C9 (HLM […]), 154 ± 66%. The “Effect of prior ketoconazole on dabrafenib exposure (Cmax and AUC)” value in [5] (rifampicin-treated female 8HUM mice, ketoconazole 20 mg/kg PO 30 min before dabrafenib) is “approximately doubling both the Cmax and AUC”.
Consider `CC(C)(C)c1nc(-c2cccc(NS(=O)(=O)c3c(F)cccc3F)c2F)c(-c2ccnc(N)n2)s1` [dabrafenib], for which the results for the “Dextromethorphan O-demethylation” value in the data set on 8HUM liver microsomes [6] (24 h after final dose) and with 8HUM liver microsomes [6] (48 h after final dose) were 726 ± 24 and 614 ± 28, respectively. In addition, the “Dibenzylfluorescein O-debenzylation” value turned out to be 440 ± 31 with 8HUM liver microsomes [7] (24 h after final dose) and 151 ± 5 in the data set on 8HUM liver microsomes [7] (48 h after final dose). Moreover, in the data set with 8HUM liver microsomes [7] (24 hours after the second dabrafenib dose, vs vehicle), the “Increase of 7-benylfluorescein O-debenzylation” value is given as “approximately 5.5 fold”. The “Elevation of 7-benylfluorescein O-debenzylation” value with 8HUM liver microsomes [7] (24 hours later (48 h after final dabrafenib dose), vs control) is “about twice control values”. Also, the figures for the “Methoxyresorufin O-demethylation” value at CYP1A2 [8] (24 h after final dose) and at CYP1A2 [8] (48 h after final dose) were 52 ± 4 and 36 ± 1, respectively. Also, the Cmax in [5] (setting [11]) was found to be 1740 ± 733 ng/mL; in data set [5] (setting [12]) it was 3650 ± 1220 ng/mL; in [5] (setting [13]), 3740 ± 613 ng/mL. Further, the half-life in [5] (setting [11]) was 1.4 ± 0.3 h; in data set [5] (setting [12]), 1.8 ± 0.1 h; in data set [5] (setting [13]) it was 2.6 ± 0.4 h; in data set [9] (day 1), 4.2 h; in [9] (day 18), 2.1 h. Besides, the figures for the AUC in data set [5] (setting [11]), in data set [5] (setting [12]) and in [5] (setting [13]) were 6150 ± 2930 ng·h/mL, 12900 ± 2710 ng·h/mL and 21900 ± 1690 ng·h/mL, respectively. Moreover, in the data set with Cyp2b10, the “Induction of murine Cyp2b10” value is listed as “induced weakly”. In addition, the Cytochrome c reductase is listed as 301 ± 19 in the data set on Cytochrome c reductase (24 h after final dose) and 244 ± 19 in the data set with Cytochrome c reductase (48 h after final dose). In the data set with CYP3A4, the CYP3A4 induction entry was “potent PXR activator and CYP3A4 inducer; also recorded: is a CYP3A4 inducer; also recorded: induction of CYP3A4”. For the same compound, the figures for the AUC0-t in data set [9] (day 1) and in [9] (day 18) were 9359 ng·h/mL and 6545 ng·h/mL, respectively.
Consider `CNCCCN1c2ccccc2CCc2ccccc21` [desipramine], for which, in the data set on CYP2D6 [10], the CYP2D6 fm is recorded as 0.88.

One may read the Km as the substrate concentration at which the rate is half of its maximum. One may read the half-life as how long it takes for the measured level to halve.
